Experimental data: ChEMBL document CHEMBL5338813 (J Med Chem, 2023)

What was measured:
Cryptosporidium parvum = experiment: Antiparasitic activity against Cryptosporidium parvum infected in human HCT-8 cells assessed as parasitic growth inhibition incubated for 48 hrs by fluorescence microscopic analysis; assay type: functional, organism-based; conditions: HCT-8, 48 h
HCT-8 = experiment: Cytotoxicity against human HCT-8 cells assessed as reduction in cell number upto 50 uM incubated for 48 hrs by; assay type: toxicity, cell-based; conditions: hct-8, 48 h
hERG (KCNH2) = hERG (KCNH2) (Homo sapiens, UniProt Q12809); experiment: (§1) Displacement of [3H]Dofetilide from human ERG at 30 uM by automated patch clamp assay relative to control; conditions: probe [3H]Dofetilide, read-out: Activity
Sequence of hERG (KCNH2) (Q12809 whole entry): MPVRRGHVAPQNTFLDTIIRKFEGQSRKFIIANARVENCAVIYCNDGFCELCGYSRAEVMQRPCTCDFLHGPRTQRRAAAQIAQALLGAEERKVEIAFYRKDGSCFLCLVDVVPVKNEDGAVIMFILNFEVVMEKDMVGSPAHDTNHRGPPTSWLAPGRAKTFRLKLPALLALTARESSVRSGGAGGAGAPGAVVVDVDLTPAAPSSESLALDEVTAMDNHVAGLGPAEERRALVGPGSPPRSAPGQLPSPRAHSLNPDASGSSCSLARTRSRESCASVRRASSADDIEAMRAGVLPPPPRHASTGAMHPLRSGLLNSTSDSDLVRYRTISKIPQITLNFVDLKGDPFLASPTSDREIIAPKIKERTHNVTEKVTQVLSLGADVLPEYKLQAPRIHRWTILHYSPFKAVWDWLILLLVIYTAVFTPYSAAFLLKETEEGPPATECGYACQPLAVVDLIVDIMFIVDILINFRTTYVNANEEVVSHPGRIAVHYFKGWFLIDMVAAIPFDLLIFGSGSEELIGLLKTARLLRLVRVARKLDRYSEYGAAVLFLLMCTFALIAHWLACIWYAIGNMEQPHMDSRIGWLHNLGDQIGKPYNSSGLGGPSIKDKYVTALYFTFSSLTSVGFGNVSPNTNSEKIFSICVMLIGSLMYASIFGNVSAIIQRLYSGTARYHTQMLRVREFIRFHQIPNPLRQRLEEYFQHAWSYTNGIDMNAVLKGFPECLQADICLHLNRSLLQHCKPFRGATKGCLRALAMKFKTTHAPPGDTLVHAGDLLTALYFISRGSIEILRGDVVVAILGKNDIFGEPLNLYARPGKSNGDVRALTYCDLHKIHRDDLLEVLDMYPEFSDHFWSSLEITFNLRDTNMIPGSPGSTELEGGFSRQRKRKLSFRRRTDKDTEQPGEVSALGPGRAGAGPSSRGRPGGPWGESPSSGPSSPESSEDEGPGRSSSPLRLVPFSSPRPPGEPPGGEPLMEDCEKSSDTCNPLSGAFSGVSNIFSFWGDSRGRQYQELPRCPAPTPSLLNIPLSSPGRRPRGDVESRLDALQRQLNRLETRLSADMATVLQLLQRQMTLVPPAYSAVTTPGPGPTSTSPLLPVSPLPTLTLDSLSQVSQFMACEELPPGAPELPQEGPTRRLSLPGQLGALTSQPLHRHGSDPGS

[1] = biological target: Voltage-gated inwardly rectifying potassium channel KCNH2 (Homo sapiens, UniProt Q12809); experiment: as §1; conditions: 30 µM
Sequence of Voltage-gated inwardly rectifying potassium channel KCNH2 (Q12809 whole entry): as above

[2] = Metabolic stability in mouse liver microsomes assessed as intrinsic clearance measured upto 60 mins; assay type: ADME, Microsome; conditions: read-out: CLH
[3] = Metabolic stability in mouse liver microsomes assessed as half life measured upto 60 mins; assay type: ADME, Microsome; conditions: 1 h
[4] = Metabolic stability in mouse intestinal S9 fraction assessed as intrinsic clearance measured upto 60 mins; assay type: ADME, subcellular, Intestine; conditions: read-out: CLH
[5] = Metabolic stability in mouse intestinal S9 fraction assessed as half life measured upto 60 mins; assay type: ADME, subcellular, Intestine; conditions: s9, 1 h
[6] = Plasma protein binding in mouse at 1 uM incubated for 30 mins by LC-MS/MS analysis; assay type: ADME, cell-free; conditions: 0.5 h
[7] = Plasma protein binding in human at 1 uM incubated for 30 mins by LC-MS/MS analysis; assay type: ADME, cell-free; conditions: 0.5 h
[8] = AUC in mouse plasma at 5 mg/kg, po measured upto 24 hrs by LC-MS/MS analysis; assay type: ADME, organism-based; set-up: dose 5 mg/kg, time < 24 hrs, route po; conditions: in vivo
[9] = AUC in mouse Jejunum at 5 mg/kg, po measured upto 24 hrs by LC-MS/MS analysis; assay type: ADME, organism-based; set-up: dose 5 mg/kg, time < 24 hrs, route po; conditions: in vivo
[10] = Cmax in mouse plasma at 5 mg/kg, po measured upto 24 hrs by LC-MS/MS analysis; assay type: ADME, organism-based; set-up: time < 24 hrs, dose 5 mg/kg, route po; conditions: in vivo
[11] = Cmax in mouse Jejunum at 5 mg/kg, po measured upto 24 hrs by LC-MS/MS analysis; assay type: ADME, organism-based; set-up: dose 5 mg/kg, time < 24 hrs, route po; conditions: in vivo
[12] = Tmax in mouse plasma at 5 mg/kg, po measured upto 24 hrs by LC-MS/MS analysis; assay type: ADME, organism-based; conditions: in vivo
[13] = Tmax in mouse Jejunum at 5 mg/kg, po measured upto 24 hrs by LC-MS/MS analysis; assay type: ADME, organism-based; conditions: in vivo

SMILES | EC50 (Cryptosporidium parvum) [nM] | Activity (HCT-8) | further results
O=C(Cc1ccc(Br)c(Cl)c1)N1CCN(c2ccc3nncn3n2)CC1 | 250 | Non-Toxic | 
O=C(Cc1ccc(F)c(C(F)F)c1)N1CCN(c2ccc3nncn3n2)CC1 | 470 | Non-Toxic | inhibition at 30 µM (hERG (KCNH2)): 23%
O=C(Cc1cc(Cl)ccc1Cl)N1CCN(c2ccc3nncn3n2)CC1 | 58000 | Non-Toxic | 
O=C(Cc1cc(F)cc(C(F)(F)F)c1)N1CCN(c2ccc3nncn3n2)CC1 | 1700 | Non-Toxic | 
O=C(Cc1ccc(F)c(Br)c1)N1CCN(c2ccc3nncn3n2)CC1 | 230 | Non-Toxic | 
O=C(Cc1cc(F)cc(F)c1)N1CCN(c2ccc3nncn3n2)CC1 | 5700 | Non-Toxic | 
O=C(Cc1ccc(F)c([N+](=O)[O-])c1)N1CCN(c2ccc3nncn3n2)CC1 | 620 | Non-Toxic | 
Cc1cc(CC(=O)N2CCN(c3ccc4nncn4n3)CC2)ccc1F | 370 | Non-Toxic | 
O=C(Cc1cc(Cl)cc(Cl)c1)N1CCN(c2ccc3nncn3n2)CC1 | 1200 | Non-Toxic | 
O=C(Cc1cccc(-c2ccccc2)c1)N1CCN(c2ccc3nncn3n2)CC1 | 25000 | Non-Toxic | 
Cc1ccc(CC(=O)N2CCN(c3ccc4nncn4n3)CC2)cc1 | 10000 | Non-Toxic | 
O=C(Cc1cccc(C(F)(F)F)c1F)N1CCN(c2ccc3nncn3n2)CC1 | 62000 | Non-Toxic | 
O=C(Cc1cccc(F)c1)N1CCN(c2ccc3nncn3n2)CC1 | 14000 | Non-Toxic | 
O=C(Cc1ccc(O)cc1)N1CCN(c2ccc3nncn3n2)CC1 | > 50000 | Non-Toxic | 
O=C(Cc1ccc([N+](=O)[O-])c(F)c1)N1CCN(c2ccc3nncn3n2)CC1 | 25000 | Non-Toxic | 
Cc1ccc(CC(=O)N2CCN(c3ccc4nncn4n3)CC2)cc1F | 5300 | Non-Toxic | 
O=C(Cc1cc(Cl)cc(C(F)(F)F)c1)N1CCN(c2ccc3nncn3n2)CC1 | 410 | Non-Toxic | 
Cc1cc(CC(=O)N2CCN(c3ccc4nncn4n3)CC2)ccc1Cl | 270 | Non-Toxic | 
O=C(Cc1ccc(C(F)(F)F)c(F)c1)N1CCN(c2ccc3nncn3n2)CC1 | 2000 | Non-Toxic | 
Cc1cc(CC(=O)N2CCN(c3ccc4nncn4n3)CC2)cc(C(F)(F)F)c1F | 70 | Non-Toxic | 
O=C(Cc1cc(F)cc(Cl)c1)N1CCN(c2ccc3nncn3n2)CC1 | 880 | Non-Toxic | 
N#Cc1ccc(CC(=O)N2CCN(c3ccc4nncn4n3)CC2)cc1 |  | Non-Toxic | 
O=C(Cc1cccc(Cl)c1Cl)N1CCN(c2ccc3nncn3n2)CC1 | > 25000 | Non-Toxic | 
O=C(Cc1ccc(F)c(OC(F)(F)F)c1)N1CCN(c2ccc3nncn3n2)CC1 | 670 | Non-Toxic | 

SMILES | EC50 (Cryptosporidium parvum) [nM] | Activity (HCT-8) | further results
O=C(Cc1ccc(F)c(CF)c1)N1CCN(c2ccc3nncn3n2)CC1 | 760 | Non-Toxic | inhibition at 30 µM (hERG (KCNH2)): 38%
O=C(Cc1ccc(F)cc1)N1CCN(c2ccc3nncn3n2)CC1 |  | Non-Toxic | 
O=C(Cc1cccc(C(F)(F)F)c1)N1CCN(c2ccc3nncn3n2)CC1 | 1100 | Non-Toxic | 
O=C(Cc1cccc(S(F)(F)(F)(F)F)c1)N1CCN(c2ccc3nncn3n2)CC1 | 1100 | Non-Toxic | 
COc1ccc(CC(=O)N2CCN(c3ccc4nncn4n3)CC2)cc1F | 12000 | Non-Toxic | 
Cc1ccccc1CC(=O)N1CCN(c2ccc3nncn3n2)CC1 | > 50000 | Non-Toxic | 
O=C(Cc1ccc([N+](=O)[O-])cc1)N1CCN(c2ccc3nncn3n2)CC1 |  | Non-Toxic | 
O=C(Cc1ccc(F)c(CO)c1)N1CCN(c2ccc3nncn3n2)CC1 | 17000 | Non-Toxic | 
O=C(Cc1ccc(F)c(Cl)c1)N1CCN(c2ccc3nncn3n2)CC1 | 240 | Non-Toxic | 
O=C(Cc1cc(F)c(F)c(F)c1)N1CCN(c2ccc3nncn3n2)CC1 | 400 | Non-Toxic | 
O=C(Cc1ccc(C(F)(F)F)cc1)N1CCN(c2ccc3nncn3n2)CC1 | 5500 | Non-Toxic | 
COc1ccc(CC(=O)N2CCN(c3ccc4nncn4n3)CC2)cc1 |  | Non-Toxic | 
O=C(Cc1ccccc1Br)N1CCN(c2ccc3nncn3n2)CC1 | > 50000 | Non-Toxic | 
O=C(Cc1cccc(Cl)c1)N1CCN(c2ccc3nncn3n2)CC1 |  | Non-Toxic | 
Cc1cccc(CC(=O)N2CCN(c3ccc4nncn4n3)CC2)c1 | 12000 | Non-Toxic | 
O=C(Cc1ccc(C(F)(F)F)c(Cl)c1)N1CCN(c2ccc3nncn3n2)CC1 | 340 | Non-Toxic | 
O=C(Cc1ccc(S(F)(F)(F)(F)F)cc1)N1CCN(c2ccc3nncn3n2)CC1 | 12000 | Non-Toxic | 
O=C(Cc1ccc(Cl)cc1Cl)N1CCN(c2ccc3nncn3n2)CC1 | > 25000 | Non-Toxic | 
O=C(Cc1ccc(Cl)c(Br)c1)N1CCN(c2ccc3nncn3n2)CC1 | 120 | Non-Toxic | 
O=C(Cc1ccc(Cl)c(C(F)(F)F)c1)N1CCN(c2ccc3nncn3n2)CC1 | 270 | Non-Toxic | 
O=C(Cc1ccc(-c2ccccc2)cc1)N1CCN(c2ccc3nncn3n2)CC1 | 56000 | Non-Toxic | 
Cc1ccc(CC(=O)N2CCN(c3ccc4nncn4n3)CC2)cc1Cl | 1100 | Non-Toxic | 
O=C(Cc1ccccc1F)N1CCN(c2ccc3nncn3n2)CC1 | > 60000 | Non-Toxic | 
O=C(Cc1ccc(Br)c(F)c1)N1CCN(c2ccc3nncn3n2)CC1 | 770 | Non-Toxic | 

SMILES | EC50 (Cryptosporidium parvum) [nM] | Activity (HCT-8) | further results
N#Cc1cc(CC(=O)N2CCN(c3ccc4nncn4n3)CC2)ccc1F | 2100 | Non-Toxic | 
O=C(Cc1ccc(Cl)cc1)N1CCN(c2ccc3nncn3n2)CC1 |  | Non-Toxic | 
O=C(Cc1ccc(Br)cc1)N1CCN(c2ccc3nncn3n2)CC1 | 1100 | Non-Toxic | 
O=C(Cc1ccc(F)c(F)c1)N1CCN(c2ccc3nncn3n2)CC1 | 760 | Non-Toxic | 
O=C(Cc1ccc(F)c(O)c1)N1CCN(c2ccc3nncn3n2)CC1 | > 50000 | Non-Toxic | 
O=C(Cc1c(Cl)cccc1Cl)N1CCN(c2ccc3nncn3n2)CC1 | > 25000 | Non-Toxic | 
O=C(Cc1ccc(CO)cc1)N1CCN(c2ccc3nncn3n2)CC1 | > 25000 | Non-Toxic | 
O=C(Cc1cccc([N+](=O)[O-])c1)N1CCN(c2ccc3nncn3n2)CC1 | 18000 | Non-Toxic | 
C#Cc1ccc(CC(=O)N2CCN(c3ccc4nncn4n3)CC2)cc1 | 880 | Non-Toxic | 
COc1cccc(CC(=O)N2CCN(c3ccc4nncn4n3)CC2)c1 |  | Non-Toxic | 
O=C(Cc1ccc(Cl)c(Cl)c1)N1CCN(c2ccc3nncn3n2)CC1 |  |  | Activity [1]: 46%; microsomal CLint [2]: 85.2 µL/min/mg; t1/2 [3]: 1.38 h; microsomal CLint [4]: < 5.8 µL/min/mg; t1/2 [5]: > 2 h; PPB [6]: 92.7%; PPB [7]: 98.2%; AUC [8]: 3387 ng·h/mL; AUC [9]: 3013 ng·h/g; Cmax [10]: 532 ng/mL; Cmax [11]: 317 ng/g; Tmax [12]: 1 h; Tmax [13]: 1 h
O=C(Cc1cccc(Br)c1)N1CCN(c2ccc3nncn3n2)CC1 | 2200 | Non-Toxic | 
O=C(Cc1cccc(O)c1)N1CCN(c2ccc3nncn3n2)CC1 | 34000 | Non-Toxic | 
COc1cc(CC(=O)N2CCN(c3ccc4nncn4n3)CC2)ccc1F | 1000 | Non-Toxic | 
N#Cc1ccc(CC(=O)N2CCN(c3ccc4nncn4n3)CC2)cc1F | 1600 | Non-Toxic | 
O=C(Cc1cc(C(F)(F)F)cc(C(F)(F)F)c1)N1CCN(c2ccc3nncn3n2)CC1 | 320 | Non-Toxic | Activity [1]: 54%
O=C(Cc1cc(C(F)(F)F)ccc1F)N1CCN(c2ccc3nncn3n2)CC1 | 15000 | Non-Toxic | 
O=C(Cc1ccc(Cl)c(F)c1)N1CCN(c2ccc3nncn3n2)CC1 | 410 | Non-Toxic | 
O=C(Cc1ccc(O)c(F)c1)N1CCN(c2ccc3nncn3n2)CC1 | 53000 | Non-Toxic | 
O=C(Cc1ccccc1Cl)N1CCN(c2ccc3nncn3n2)CC1 | > 25000 | Non-Toxic | 
N#Cc1cccc(CC(=O)N2CCN(c3ccc4nncn4n3)CC2)c1 | 38000 | Non-Toxic | 
Cc1cc(F)ccc1CC(=O)N1CCN(c2ccc3nncn3n2)CC1 | 22000 | Non-Toxic | 
